Here are results for one molecule from patent publication US20240216407A1, “NOVEL POLYPHENOL COMPOUND” (NABOCUL COSMETICS CO., LTD., priority 2021, published 2024).

This assay relates to collagen gene (COL1A1 gene). Kind of assay: Promotion of collagen gene (COL1A1) mRNA expression in HaCaT cells, real-time PCR (QPCR). Particulars: for increase of the expression level of the collagen gene (COL1A1 mRNA) compared to the control: 24 hours culture. The class given is cell-based, human. Here is the method: The OLANDU obtained in Example 2 was used to examine the effect of promoting the expression of collagen gene (COL1A1 gene) in a HaCaT cell that is a human epidermis-derived keratinocyte cell line.
First, the HaCaT cells were cultured in a DMEM medium (containing 10% FBS, 100 U/mL penicillin and […] streptomycin) in the presence of 5% CO2 at 37° C. and saturated humidity. Next, the HaCaT cells adjusted to a cell concentration of 5×10^5 cells/mL were seeded in each well of a 6-well cell culture plate and cultured in a CO2 incubator (5% CO2, 37° C.) for 24 hours. Thereafter, the OLANDU isolated in Example 2 was added to each well to provide a final concentration different from each other. Specifically, the final concentrations of OLANDU in the HaCaT cell culture medium were 1 μM, 5 μM, 10 μM, 50 μM and 100 μM, respectively. A well to which the OLANDU had not been added was used as a control (0 μM). After addition, they were subjected to culture for 24 hours.
After completion of the culture, the HaCaT cells were collected from each well, and total RNA was extracted with an RNA extraction reagent (RNAzol®, a product available from Molecular Research Center, Inc.). The concentration of total RNA obtained by extraction was confirmed with an ultratrace spectrophotometer (NanoDrop; a product available from Thermo Fisher Scientific). To this total RNA were added an oligo dT primer, a dNTP Mix, a 5×1st strand buffer, an RNase inhibitor, DTT and an M-MLV reverse transcriptase to synthesize cDNA from the total RNA. This cDNA was subjected to real-time PCR (QPCR) to measure the expression level of the collagen gene.
QPCR was performed with a commercially available QPCR reagent kit and QPCR measurement device (LightCycler® 480; a product available from Roche Diagnostics K. K.), and the detection was performed with SYBR® Green that is a double-stranded DNA-binding fluorescent dye. The COL1A1 gene encoding the α1 chain of type I collagen was selected as a target gene, and the primers of SEQ ID NOs: 1 and 2 shown in Table 1 below were used as QPCR primers. […]

For `COc1ccc(/C=C/C(=O)OC[C@H]2O[C@H](OC(=O)c3cc(O)c(O)c(O)c3)[C@H](O)[C@@H](O)[C@@H]2O)cc1O` [OLANDU], the “increase of the expression level of the collagen gene (COL1A1 mRNA) compared to the control” value by setting is: (OLANDU 1 μM, control = 100) “approximately two-fold”; (OLANDU 10 μM, control = 100, highest expression-promoting action) “more than three-fold”. Moreover, the “expression level of the collagen gene (COL1A1 mRNA) compared to the control without OLANDU” value (OLANDU 1, 5, 10, 50 and 100 μM, 24 hours culture (FIG. 11)) is listed as “greatly increased the expression level of the collagen gene”.
